Assay results as given in patent US20250228865A1, “COMPOUNDS FOR ENHANCING READ THROUGH OF GENES CONTAINING PREMATURE TERMINATION CODONS AND METHODS FOR MAKING AND USING THE SAME” (Sanofi US Services Inc., priority 2022, published 2025).

Columns and labels:
[1] = test system: CFTR R1162X; assay: Functional CFTR channel activity, TECC-24 electrophysiology, 16HBE cells (CFTR R1162X readthrough); type: cell-based, human
Method: 16HBE human bronchial epithelial cells were seeded onto Transwell 24-well filter inserts coated with human collagen type IV. Cells were seeded 7 days prior to functional testing at a density of 1.7×10^5 cells onto the “apical” chamber filter of the Transwell insert. Cells were grown as submerged cultures (200 μL apical/700 μL basolateral) in Minimal Essential Medium (MEM) containing 10% qualified Fetal Bovine Serum and 1% Penicillin/Streptomycin and incubated at 37° C. and 5% CO2. Growth media on cells was replenished with fresh media every 1-3 days prior to test agent treatment day. After 7 days in culture, the CFTR-mediated chloride (Cl^−) equivalent current (Ieq) of the 16HBE cells was recorded, which may typically form electrically tight epithelia with a transepithelial resistance (Rt) of 2000-6000 Ω·cm2 as described below. Forty-eight hours prior to electrophysiological measurements, fresh growth media containing the test agents was applied to both chambers separating filter bound epithelial monolayer.
On the day of electrophysiology studies, electrodes of a “Multi-(24-channel) transepithelial current clamp amplifier” (MTECC-24 (TECC-24 for short), EP Devices, Belgium) were soaked in an assay buffer (see below for composition) for at least 2 hours using 24-well Transwell plates without inserts. Cell culture media was replaced in the Transwell assay plates with assay buffer (see below) and the plates were mounted onto a custom-built automated robotic assay platform (Yamaha RCX240S controller) with heated plate holders set at 37° C. for 60 min. After equilibration, transepithelial potential difference (PD) and resistance (Rt) was monitoredat ˜5 min intervals using the TECC-24 transepithelial current clamp. Electrode potential differences were monitored for each pair of Ag/AgCl voltage electrodes by taking voltage measurements from a control (“blank”) plate with matching buffer solutions and 16HBE cells that were not treated with any test agent. PD values for each electrode pair were subtracted from the blank plate from that of the test plates at each time point. Ieq was calculated from the corrected PD values and Rt using Ohm's law. Ieq values were slope corrected to account for measurement drift over time using the equation: Slope corrected value=calculated Ieq−((time x slope)+y-intercept) with the slope and y-intercept calculated from the data points captured during the initial baseline period and following addition of the CFTR inhibitor.
The equivalent current (Ieq) traces associated with CFTR channel activation were plotted as baseline subtracted mean±standard deviation from 3-4 separate wells on the 24-well Transwell (n=3-4). There are 4 recording periods, with the first set of data points recorded baseline Ieq currents prior to sequential activation of available CFTR channels with forskolin (10 μM) and then in combination with potentiator VX-770/ivacaftor (1 μM). Recorded the last set of data points in the presence of CFTR inhibitor CFTRinh-172 (20 μM) to confirm that currents are mediated via activation of CFTR channels. The test agents and control/reference compounds were pre-diluted to 10-fold concentrations in assay buffer and added manually using a multi-channel pipette to both the basolateral and apical side of the membrane (test plates only). Employed CFTR-mediated changes in Ieq, (i.e. forskolin/VX-770 activated currents) to measure functional CFTR surface expression or treatment-related functional rescue of mutant CFTR.
The magnitude of test agent mediated enhancement of functional CFTR currents was calculated by comparing forskolin/VX-770 stimulated Ieq relative to baseline/CFTRinh-172 Ieq following 48 hour pretreatment with test agent(s) and normalizing to the forskolin/VX-770 stimulated Ieq determined following 48 hour pretreatment with a maximally effective concentration a reference control aminoglycoside agent (typically 110 μM G418). […]

[2] = test system: recombinant human CFTR carrying the premature stop codon (PTC) mutation G542X; assay: CFTR-PTC mutant translation readthrough, Nanoluc tagged CFTR luminescence (G542X cell line); type: cell-based; conditions: in combination with G418, G542X cell line; for CFTR G542X ACTIVITY Fold 10 μM G-418: fold over 10 μM G-418; for EC50: 16HBE cells
Procedure, shortened: (§1)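 Readthrough is the 48 h compound-induced luminescence increase scaled to that of maximal G418 (125-250 μM). Compounds run from 50 μM final in 2-fold steps, ±10 μM G418, on 16HBE lines carrying Nanoluc-tagged CFTR G542X (extracellular loop 4 tag) or R1162X (C-terminal tag), with 3 μM VX-809 present.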

[3] = test system: recombinant human CFTR carrying the premature stop codon (PTC) mutation R1162X; assay: CFTR-PTC mutant translation readthrough, Nanoluc tagged CFTR luminescence (R1162X cell line); type: cell-based; conditions: for CFTR R1162X ACTIVITY Fold 10 μM G-418: fold over 10 μM G-418, in combination with G418; for EC50: in combination with G418, 16HBE cells, read-out: CFTR R1162X ACTIVITY EC50
Procedure, shortened: as §1

[4] = RTM 1 uM, eRF3 modulator (CC-90009) 1 uM, ELX-02 100 uM
[5] = RTM 5 uM, eRF3 modulator (CC-90009) 10 uM, G418 10 uM
[6] = RTM 1 uM, no eRF3 modulator, ELX-02 100 uM
[7] = RTM conc. —, eRF3 modulator (CC-90009) 1 uM, ELX-02 100 uM

Structure (SMILES)	EC50 [2] [nM]	EC50 [3] [nM]	CFTR G542X ACTIVITY Fold 10 μM G-418 [2]	CFTR R1162X ACTIVITY Fold 10 μM G-418 [3]	further results
OCc1ccn(-c2ncc(OCc3c(Cl)cccc3Cl)cn2)n1 [drawing 803]					Currents (% of 110 μM G418 (Max effect)) [1, 4]: 300 % of 110 μM G418 (Max effect)
OCc1ncn(-c2ncc(OCc3c(Cl)cccc3C(F)(F)F)cn2)n1 [drawing 810]					Currents (% of 110 μM G418 (Max effect)) ([1]; RTM 3 uM, no eRF3 modulator, ELX-02 100 uM): 102 % of 110 μM G418 (Max effect)
O=C1O[C@@H](CO)CN1c1ccc(OCc2c(Cl)cccc2Cl)cc1 [drawing 820]					Currents (% of 110 μM G418 (Max effect)) [1, 5]: 320 % of 110 μM G418 (Max effect)
OCc1cn(-c2ncc(OCc3c(Cl)cccc3Cl)cn2)cn1 [drawing 797]					Currents (% of 110 μM G418 (Max effect)) ([1]; RTM 0.5 uM, no eRF3 modulator, G418 10 uM): 64 % of 110 μM G418 (Max effect)
O=C1O[C@H](CO)CN1c1ccc(OCc2c(Cl)cccc2Cl)cc1 [drawing 818]					Currents (% of 110 μM G418 (Max effect)) [1, 5]: 314 % of 110 μM G418 (Max effect)
O=C1N[C@H](CO)CN1c1ccc(OCc2c(Cl)cccc2Cl)cn1 [drawing 807]					Currents (% of 110 μM G418 (Max effect)) [1, 6]: 70 % of 110 μM G418 (Max effect)
OCc1ncn(-c2ncc(OCc3c(Cl)cccc3C(F)(F)F)cn2)n1 [drawing 812]					Currents (% of 110 μM G418 (Max effect)) ([1]; RTM 3 uM, eRF3 modulator (CC-90009) 1 uM, ELX-02 100 uM): 288 % of 110 μM G418 (Max effect)
O=C1O[C@@H](CO)CN1c1ccc(OCc2c(Cl)cccc2Cl)cc1 [drawing 819]					Currents (% of 110 μM G418 (Max effect)) ([1]; RTM 5 uM, no eRF3 modulator, G418 10 uM): 81 % of 110 μM G418 (Max effect)
OCc1ccn(-c2ncc(OCc3c(Cl)cccc3Cl)cn2)n1 [drawing 801]					Currents (% of 110 μM G418 (Max effect)) [1, 6]: 102 % of 110 μM G418 (Max effect)
Cc1cccc(C(F)(F)F)c1COc1ccc(-c2nc(CO)n[nH]2)cc1 [drawing 806]					Currents (% of 110 μM G418 (Max effect)) [1, 4]: 269 % of 110 μM G418 (Max effect)
Cc1cccc(C(F)(F)F)c1COc1ccc(-c2nc(CO)n[nH]2)cc1 [drawing 805]					Currents (% of 110 μM G418 (Max effect)) [1, 7]: 63 % of 110 μM G418 (Max effect)
OCc1ncn(-c2ncc(OCc3c(Cl)cccc3C(F)(F)F)cn2)n1 [drawing 811]					Currents (% of 110 μM G418 (Max effect)) [1, 7]: 77 % of 110 μM G418 (Max effect)

The next lines start with results.

EC50 [2] [nM]	EC50 [3] [nM]	Structure (SMILES)	CFTR G542X ACTIVITY Fold 10 μM G-418 [2]	CFTR R1162X ACTIVITY Fold 10 μM G-418 [3]	further results
1000 to 10000	1000 to 10000	NC(=O)N1CCN(c2ncc(OCc3c(Cl)cccc3Cl)cn2)CC(O)C1 (centres unmarked)	A′ (A′ = ≥10X)	A′ (A′ = ≥10X)	
1000 to 10000	1000 to 10000	CC1CC(CO)CN1c1ncc(OCc2c(Cl)cccc2Cl)cn1 (centres unmarked)	A′ (A′ = ≥10X)	A′ (A′ = ≥10X)	
< 1000	1000 to 10000	OCc1cc(-c2ncc(OCc3c(Cl)cccc3Cl)cn2)no1 [[3-[5-[(2,6-dichlorophenyl)methoxy]pyrimidin-2-yl]isoxazol-5-yl]methanol]	A′ (A′ = ≥10X)	A′ (A′ = ≥10X)	
1000 to 10000	1000 to 10000	OCC1CCCN(c2ncc(OCc3c(Cl)cccc3Cl)cn2)C1 (centres unmarked) [[1-[5-[(2,6-dichlorophenyl)methoxy]pyrimidin-2-yl]-3-piperidyl]methanol]	A′ (A′ = ≥10X)	A′ (A′ = ≥10X)	
1000 to 10000	1000 to 10000	NC(=O)c1ccc(OCc2c(Cl)cccc2Cl)cn1 [5-[(2,6-dichlorophenyl)methoxy]pyridine-2-carboxamide]	A′ (A′ = ≥10X)	B′ (B′ = ≥5X to <10X)	
1000 to 10000	1000 to 10000	FC1(F)CCN(c2ncc(OCc3c(Cl)cccc3C(F)(F)F)cn2)C1	A′ (A′ = ≥10X)	A′ (A′ = ≥10X)	
< 1000	< 1000	Cc1cccc(C(F)(F)F)c1COc1ccc(-n2cnc(C(N)=O)n2)cc1	B′ (B′ = ≥5X to <10X)	A′ (A′ = ≥10X)	
> 10000	> 10000	O=C1Cc2cc(NCc3c(Cl)cccc3Cl)ccc2C(=O)N1 [Compound 303, 6-[(2,6-dichlorophenyl)methylamino]-4H-isoquinoline-1,3-dione]			
1000 to 10000	1000 to 10000	OCc1nc(-c2ccc(OCc3c(Cl)cccc3Cl)cn2)no1 [[3-[5-[(2,6-dichlorophenyl)methoxy]-2-pyridyl]-1,2,4-oxadiazol-5-yl]methanol]	A′ (A′ = ≥10X)	A′ (A′ = ≥10X)	
1000 to 10000	1000 to 10000	Cc1cccc(C(C)(F)F)c1COc1ccc(N2CC(CO)NC2=O)nc1 (centres unmarked)	A′ (A′ = ≥10X)	A′ (A′ = ≥10X)	
1000 to 10000	1000 to 10000	Cc1cccc(C(F)(F)F)c1COc1cnc(-n2cc(CO)nn2)nc1	A′ (A′ = ≥10X)	A′ (A′ = ≥10X)	
> 10000	> 10000	O=C1N[C@H](CO)C(=O)N1c1ccc(OCc2c(Cl)cccc2Cl)cn1	A′ (A′ = ≥10X)	B′ (B′ = ≥5X to <10X)	
1000 to 10000	1000 to 10000	CN(C(N)=O)c1ncc(OCc2c(Cl)cccc2Cl)cn1 [1-[5-[(2,6-dichlorophenyl)methoxy]pyrimidin-2-yl]-1-methyl-urea]	A′ (A′ = ≥10X)	A′ (A′ = ≥10X)	
< 1000	< 1000	Cc1cccc(C(F)(F)F)c1COc1cnc(N2CCC(O)(c3cccnc3)CC2)nc1	A′ (A′ = ≥10X)	A′ (A′ = ≥10X)	
< 1000	1000 to 10000	Clc1cccc(Cl)c1COc1cnc(N2CCC3(CCO3)C2)nc1 (centres unmarked) [7-[5-[(2,6-dichlorophenyl)methoxy]pyrimidin-2-yl]-1-oxa-7-azaspiro[3.4]octane]	A′ (A′ = ≥10X)	A′ (A′ = ≥10X)	
1000 to 10000	1000 to 10000	Clc1cccc(Cl)c1COc1cnc(N2C[C@H]3COC[C@H]3C2)nc1	A′ (A′ = ≥10X)	A′ (A′ = ≥10X)	
